How the values were obtained:
[1] = ProGem1 phase I study: pharmacokinetics (intracellular dFdCTP, dFdU); type: in vivo, human; details: relative to levels normally associated with gemcitabine
Description: (§1) ProGem1 was a first-time-in-human (FTIH), phase I, open label, two stage study to investigate the safety, tolerability, clinical efficacy, pharmacokinetics (PK) and pharmacodynamics (PD) of NUC-1031 given in two parallel dosing schedules in subjects with advanced solid malignancies (EudraCT Number: 2011-005232-26). Subjects had the following tumour types at study entry: colorectal cancer (7 subjects), unknown primary (3), ovarian cancer (12), breast cancer (4), pancreatic cancer (9), cholangiocarcinoma (7), endometrial cancer (3), cervical cancer (2), lung cancer (7), mesothelioma (3), oesophageal cancer (3), cancer of the fallopian tube (1), trophoblast (1), renal cancer (1), gastric cancer (1), anal cancer (1), cancer of the thymus (1) and osteosarcoma (1).

[2] = test system: advanced solid malignancies; assay: ProGem1 phase I study: clinical efficacy; type: in vivo, human; details: patients with advanced progressive cancers who have exhausted all standard therapeutic options, many resistant or refractory to prior nucleoside analogue therapy
Description: as §1

[3] = stability stress testing of crystalline form; type: physicochemical; details: ambient light, 40° C. and 75% relative humidity, 7 days
Description: Form VIII appeared physically stable upon stability stress testing.

Q: Which “levels of the potentially toxic metabolite 2′,2′-difluoro-2′-deoxyuridine (dFdU) released, relative to gemcitabine” value [1] does the source give for `C[C@H](NP(=O)(OC[C@H]1O[C@@H](n2ccc(N)nc2=O)C(F)(F)C1O)Oc1ccccc1)C(=O)OCc1ccccc1` (stereo partly shown) [NUC-1031] here?
A: The value was “less than half”.

Q: And the anti-tumour activity [2]?
A: The anti-tumour activity was “anti-tumour activity”.

Q: With `C[C@H](N[P@](=O)(OC[C@H]1O[C@@H](n2ccc(N)nc2=O)C(F)(F)C1O)Oc1ccccc1)C(=O)OCc1ccccc1` (stereo partly shown) [Form VIII] as the compound, how does the “change in crystalline form upon storage” value [3] read?
A: Its value is “No change in crystalline form”.

Q: And the “decrease in purity upon storage” value [3]?
A: The value was “no decrease in purity”.

Source: patent US11377467B2, “Crystalline form of gemcitabine” (NuCana plc, priority 2015, dated 2022)
